Read-outs that look alike come from different tables or passages of the source.
Experiments:
[1] = tested on: PANDI - fall panicum (Panicum dichotomiflorum Michx.); test: Greenhouse evaluation of postemergence herbicidal activity, foliar treatment, PANDI; assay type: in vivo; settings: 16 DAA
Excerpt: (§1) Seeds or nutlets of the desired test plant species were planted in a soil matrix prepared by mixing a sandy loam soil (28.6 percent silt, 18.8 percent clay, and 52.6 percent sand, with a pH of about 5.8 and an organic matter content of about 1.8 percent) and calcareous grit in an 80 to 20 ratio. The soil matrix was contained in plastic pots with a surface area of 84.6 cm^2 and a volume of 560 cubic centimeters (cm^3). When required to ensure good germination and healthy plants, a fungicide treatment and/or other chemical or physical treatment was applied. The plants were grown for 7-31 days (d) in a greenhouse with an approximate 15 hour (h) photoperiod which was maintained at about 23-29° C. during the day and 22-28° C. during the night. Nutrients (Peters Excel® 15-5-15 5-Ca2-Mg) and water were added on a regular basis and supplemental lighting was provided with overhead metal halide 1000-Watt lamps as necessary. The plants were employed for testing when they reached the first, second, or third true leaf stage.
Treatment requirements were calculated based upon the rates being tested, the concentration of active ingredient or acid equivalent in the formulation, and a 12 mL application volume at a rate of 187 L/ha.
(§2) Treatments consisted of the potassium (K^+) salt of 4-amino-3-chloro-6-(4-chloro-2-fluoro-3-methoxy-phenyl)pyridine-2-carboxylic acid formulated as an SL or the benzyl ester of 4-amino-3-chloro-6-(4-chloro-2-fluoro-3-methoxy-phenyl)pyridine-2-carboxylic acid as technical material, and 2,4-D dimethylamine (DMA) salt applied as Weedar® 64 EC alone and in combination. Forms of the pyridine carboxylic acid and 2,4-D were applied on an acid equivalent basis.
(§3) For treatments comprised of formulated compounds, measured amounts of compounds were placed individually in 25 mL glass vials and diluted in a volume of 1.5% (v/v) Agri-dex® crop oil concentrated to obtain 6× stock solutions. […] Application solutions were prepared by adding an appropriate amount of each stock solution (typically 2 mL) and diluted to the appropriate final concentrations with the addition of an appropriate amount of an aqueous mixture of 1.5% (v/v) crop oil concentrate and an appropriate amount of water so that the final spray solutions contained 1.25+/−0.05% (v/v) crop oil concentrate.
For treatments comprised of formulated and technical compounds, weighed amounts of the technical materials were placed individually in 25 mL glass vials and dissolved in a volume of 97:3 v/v acetone/DMSO to obtain 6× stock solutions, and measured amounts of the formulated compounds were placed individually in 25 mL glass vials and diluted in a volume of 1.5% (v/v) crop oil concentrate to obtain 6× stock solutions. […]

[2] = tested on: ELEIN - goosegrass (Eleusine indica (L.) Gaertn.); settings: 14 DAA, greenhouse, foliar
Protocol: as §1, with “When required to ensure good germination and healthy plants, a fungicide treatment and/or other chemical or physical treatment was applied.” left out
as §2, §3
(§4) For treatments comprised of formulated and technical compounds, weighed amounts of the technical materials were placed individually in 25 mL glass vials and dissolved in a volume of 97:3 v/v acetone/DMSO to obtain 6× stock solutions, and measured amounts of the formulated compounds were placed individually in 25 mL glass vials and diluted in a volume of 1.5% (v/v) crop oil concentrate to obtain 6× stock solutions. […] Application solutions were prepared by adding an appropriate amount of each stock solution (eg, 2 mL) and diluted to the appropriate final concentrations with the addition of an appropriate amount of an aqueous mixture of 1.5% (v/v) crop oil concentrate and an appropriate amount of water so that the final spray solutions contained 1.25% (v/v) crop oil concentrate. The final acetone and DMSO concentrations of the application solutions containing technical material were 16.2% and 0.5%, respectively.
(§5) All stock solutions and applications solutions were visually inspected for compound compatibility prior to application. Compound requirements are based upon a 12 mL application volume at a rate of 187 liters per hectare (L/ha). Application solutions were applied to the plant material with an overhead Mandel track sprayer equipped with 8002E nozzles calibrated to deliver 187 L/ha over an application area of 0.503 square meters (m^2) at a spray height of 18 to 20 inches above the average plant canopy height. Control plants were sprayed in the same manner with the solvent blank.
(§6) The treated plants and control plants were placed in a greenhouse as described above and watered by sub-irrigation to prevent wash-off of the test compounds. After approximately 2 weeks, the condition of the test plants as compared with that of the untreated plants was determined visually and scored on a scale of 0 to 100 percent where 0 corresponds to no injury and 100 corresponds to complete kill.

[3] = tested on: LOLMU - Italian ryegrass (Lolium perenne L. ssp. multiflorum (Lam.) Husnot); settings: 14 DAA, greenhouse, foliar
Protocol: as §1, with “When required to ensure good germination and healthy plants, a fungicide treatment and/or other chemical or physical treatment was applied.” left out
as §2, §3, §4, §5, §6

[4] = tested on: MEOPA - escoba blanca (Melochia parviflora); test: Field evaluation of postemergence herbicidal activity of mixtures in range and pasture (Colombia); assay type: in vivo; settings: 14 DAA
Protocol: Field trials were conducted in pastures in Colombia using standard herbicide small plot research methodology. Plot size was typical for small plot research, varying from 2 meters (m) wide by 6 m long. There were 4 replicates per treatment. Soil type ranged from medium to heavy soil texture. Perennial pastures were sown by hand direct dry seeding as per normal local cultural practices. The pastures were grown using normal cultural practices for fertilization and maintenance to ensure good growth of the pastures and the weeds.
Treatments were applied by backpack sprayer using either compressed air or carbon dioxide (CO2), at spray pressures from […]. Spray tips were typically Flat Fan Teejet nozzles, such as TJ8003. Spray volumes used were 400 liters per hectare (L/ha). MEOPA plant size at application varied from 70 to 80 centimeters (cm) tall active growth at flowering stage.
For each treatment, the appropriate formulated product amount to treat the plot area, to achieve the desired application rate, based on unit area of application (hectare), was calculated, measured, and mixed in water prior to applying with the backpack sprayer. Treatments were rated as compared to the untreated control plots. 2,4-D was used as Invesamina 480 SL®. Compound I was formulated as a 10% weight percent active ingredient (wt ai %—100 grams ai per L (g ai/L); 95.94 g ae/L) suspension concentrate (SC) of the corresponding methyl ester.
For both Example 1 and Example 2, the Colby equation was used to determine the herbicidal effects expected from the mixtures (Colby, S. R. Calculation of the synergistic and antagonistic response of herbicide combinations. Weeds 1967, 15, 20-22.).
The following equation was used to calculate the expected activity of mixtures containing two active ingredients, A and B:
A=observed efficacy of active ingredient A at the same concentration as used in the mixture.
B=observed efficacy of active ingredient B at the same concentration as used in the mixture.

[5] = 2,4-D dimethyl amine 52.5 g ae/ha alone
[6] = 2,4-D dimethyl amine 105 g ae/ha alone
[7] = potassium salt 3.75 g ae/ha alone

CNC.O=C(O)COc1ccc(Cl)cc1Cl [2,4-D (Dimethyl Amine), 2,4-D dimethylamine (DMA) salt]
PANDI (% Control) Obs [1, 5]: 0%
PANDI (% Control) Obs [1, 6]: 0%
PANDI (% Control) Obs ([1]; 2,4-D dimethyl amine 210 g ae/ha alone): 0%
ELEIN (% Control) Obs [2, 5]: 0%
ELEIN (% Control) Obs [2, 6]: 0%
LOLMU (% Control) Obs [3, 5]: 0%
LOLMU (% Control) Obs [3, 6]: 0%

COc1c(Cl)ccc(-c2cc(N)c(Cl)c(C(=O)[O-])n2)c1F.[K+] [potassium (K^+) salt of 4-amino-3-chloro-6-(4-chloro-2-fluoro-3-methoxy-phenyl)pyridine-2-carboxylic acid]
PANDI (% Control) Obs [1, 7]: 75%
LOLMU (% Control) Obs [3, 7]: 15%
LOLMU (% Control) Obs ([3]; potassium salt 7.5 g ae/ha alone): 35%

O=C(O)COc1ccc(Cl)cc1Cl [2,4-D, (2,4-dichlorophenoxy)acetic acid]
MEOPA (% Control) Obs ([4]; 2,4-D 480 g ae/ha alone): 3.8%

COc1c(Cl)ccc(-c2cc(N)c(Cl)c(C(=O)OCc3ccccc3)n2)c1F [Pyridine Carboxylic Acid (Benzyl Ester), benzyl ester of 4-amino-3-chloro-6-(4-chloro-2-fluoro-3-methoxy-phenyl)pyridine-2-carboxylic acid]
ELEIN (% Control) Obs ([2]; benzyl ester 3.75 g ae/ha alone): 0%
ELEIN (% Control) Obs ([2]; benzyl ester 7.5 g ae/ha alone): 25%

COC(=O)c1nc(-c2ccc(Cl)c(OC)c2F)cc(N)c1Cl [Pyridine Carboxylic Acid (Methyl Ester), halauxifen-methyl]
MEOPA (% Control) Obs ([4]; methyl ester 17.5 g ae/ha alone): 48.5%
MEOPA (% Control) Obs ([4]; methyl ester 35 g ae/ha alone): 63.1%
